Among the test systems are OVCAR-4 ovarian; DU-145 prostate; 786-0 renal; T-47D breast; NCI/ADR-RES ovarian; CAKI-1 renal; NCI-H460 lung; MDA-MB-231 breast; SF-539 CNS; CCRF-CEM leukemia; SR leukemia; OVCAR-3 ovarian; IGROV1 ovarian; MDA-MB-435; TK-10 renal; SW-620 colon; NCI-H23 lung; NCI-H522 lung; OVCAR-5 ovarian.
Test in all cases: growth of human tumour cells (NCI), 48 h

This is an account of results in PubChem BioAssay (NCI).

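Grown in 96-well plates, cells were treated for 48 hours with each compound at five concentrations. Insufficient inhibition: endpoint recorded as highest concentration tested. At the TGI there is no net growth.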

For `COC(=O)C1=CS/C(=C2\S[C@@H]3[C@H](S2)[C@H]2C=C[C@@H]3C2)S1`, the TGI was more than 100 µM in the assay on OVCAR-4 ovarian; more than 100 µM with DU-145 prostate; more than 100 µM in the assay with 786-0 renal; more than 100 µM in the assay on T-47D breast; 47.8 µM in the assay with NCI/ADR-RES ovarian; more than 100 µM with CAKI-1 renal. For the same molecule, the TGI in the assay with NCI-H460 lung is more than 100 µM; with MDA-MB-231 breast, more than 100 µM; in the assay on SF-539 CNS, 32.5 µM; in the assay on CCRF-CEM leukemia, more than 100 µM; with SR leukemia it was more than 100 µM; in the assay on OVCAR-3 ovarian it was more than 100 µM. Besides, the TGI in the assay with IGROV1 ovarian is more than 100 µM; with MDA-MB-435 it was 5.09 µM; in the assay with TK-10 renal, more than 100 µM; in the assay on SW-620 colon, more than 100 µM; in the assay with NCI-H23 lung, more than 100 µM.
Turning to `CC(CC[C@@]1(C)C(=O)CCC2O[C@]21C)[C@H]1C[C@@H](c2ccoc2)OC1=O` (stereo partly specified), the TGI is 55.3 µM in the assay on OVCAR-4 ovarian; more than 100 µM with DU-145 prostate; 63.1 µM in the assay with 786-0 renal; more than 100 µM in the assay with T-47D breast; more than 100 µM in the assay with NCI/ADR-RES ovarian; 71.8 µM in the assay with CAKI-1 renal. Moreover, the TGI with NCI-H460 lung is more than 100 µM; in the assay with NCI-H522 lung, 22.2 µM; in the assay with OVCAR-5 ovarian, more than 100 µM; in the assay with SF-539 CNS, 69.1 µM; in the assay on CCRF-CEM leukemia, 61.3 µM; with SR leukemia it was more than 100 µM. The TGI is 66.1 µM with OVCAR-3 ovarian; more than 100 µM with IGROV1 ovarian; more than 100 µM in the assay with MDA-MB-435; 94.4 µM in the assay with TK-10 renal; 91.8 µM in the assay on SW-620 colon; more than 100 µM in the assay with NCI-H23 lung.
Take `N#C/C(=C/NC(N)=S)C(N)=O`: the TGI in the assay on OVCAR-4 ovarian, with DU-145 prostate, in the assay with 786-0 renal, with T-47D breast, with NCI/ADR-RES ovarian and with CAKI-1 renal was more than 100 µM each time. In addition, the TGI in the assay with NCI-H460 lung, with OVCAR-5 ovarian, in the assay on MDA-MB-231 breast, in the assay with SF-539 CNS, in the assay on OVCAR-3 ovarian and in the assay with IGROV1 ovarian was more than 100 µM each time. The TGI in the assay with MDA-MB-435, in the assay with TK-10 renal, in the assay on SW-620 colon and with NCI-H23 lung was more than 100 µM in each case.
Consider `O=C(/C=C/c1ccc2ccccc2c1)NCc1ccc(C(=O)NCCc2ccccc2)cc1`, for which the TGI with OVCAR-4 ovarian, in the assay on DU-145 prostate, in the assay on 786-0 renal, in the assay with T-47D breast, with NCI/ADR-RES ovarian and with CAKI-1 renal was more than 100 µM in each case. The TGI in the assay with NCI-H460 lung, with OVCAR-5 ovarian, in the assay with MDA-MB-231 breast, in the assay on CCRF-CEM leukemia, in the assay with SR leukemia and with OVCAR-3 ovarian was more than 100 µM each time. For the same molecule, the TGI in the assay on MDA-MB-435, in the assay with SW-620 colon and in the assay on NCI-H23 lung was more than 100 µM in each case.
As to `O=C1NC(=S)NC(=O)C1C(c1ccc(O)cc1)C1C(=O)NC(=S)NC1=O`, the TGI in the assay on OVCAR-4 ovarian, in the assay with DU-145 prostate, in the assay on 786-0 renal, with T-47D breast, in the assay on NCI/ADR-RES ovarian and with CAKI-1 renal was more than 100 µM in each case. The TGI with NCI-H460 lung, with NCI-H522 lung, in the assay on OVCAR-5 ovarian, with MDA-MB-231 breast, in the assay on CCRF-CEM leukemia and in the assay on OVCAR-3 ovarian was more than 100 µM each time. Besides, the TGI in the assay with IGROV1 ovarian, with MDA-MB-435, in the assay with TK-10 renal, in the assay on SW-620 colon and with NCI-H23 lung was more than 100 µM each time.
On to `CC(C)OC(=O)/C=C/C(=O)O/C=C/[N+](=O)[O-]`, for which the TGI with OVCAR-4 ovarian is more than 100 µM; in the assay on DU-145 prostate, more than 100 µM; in the assay on 786-0 renal it was more than 100 µM; in the assay with T-47D breast, 46.4 µM; in the assay on NCI/ADR-RES ovarian, more than 100 µM; with CAKI-1 renal, more than 100 µM. The TGI in the assay on NCI-H460 lung is more than 100 µM; in the assay with OVCAR-5 ovarian, more than 100 µM; in the assay with MDA-MB-231 breast it was more than 100 µM; with SF-539 CNS it was more than 100 µM; with SR leukemia, 71.6 µM; in the assay with OVCAR-3 ovarian, more than 100 µM. The TGI with IGROV1 ovarian is 63 µM; in the assay on MDA-MB-435 it was more than 100 µM; in the assay on TK-10 renal it was more than 100 µM; in the assay on SW-620 colon it was more than 100 µM; in the assay with NCI-H23 lung, more than 100 µM.
Turning to `CCOC(=O)C1C(=O)CC1(C)C` (stereo unspecified), the TGI with OVCAR-4 ovarian, in the assay with DU-145 prostate, with 786-0 renal, with T-47D breast, in the assay on NCI/ADR-RES ovarian and with CAKI-1 renal was more than 10 µM each time. The TGI in the assay with NCI-H460 lung, in the assay with OVCAR-5 ovarian, in the assay with MDA-MB-231 breast, in the assay with SF-539 CNS, with CCRF-CEM leukemia and with SR leukemia was more than 10 µM in each case. Besides, the TGI in the assay with OVCAR-3 ovarian, in the assay on IGROV1 ovarian, in the assay with MDA-MB-435, with TK-10 renal, in the assay on SW-620 colon and with NCI-H23 lung was more than 10 µM throughout.
On to `CC1(C)/C(=C/N=O)N(O)C(C)(C)N1O`, for which the TGI in the assay with OVCAR-4 ovarian, in the assay on DU-145 prostate, in the assay on 786-0 renal, with T-47D breast, in the assay with NCI/ADR-RES ovarian and in the assay with CAKI-1 renal was more than 100 µM in each case. Also, the TGI in the assay with NCI-H460 lung, in the assay with OVCAR-5 ovarian, with MDA-MB-231 breast, in the assay with SF-539 CNS, in the assay on CCRF-CEM leukemia and with SR leukemia was more than 100 µM each time. Further, the TGI with OVCAR-3 ovarian was more than 100 µM; in the assay with IGROV1 ovarian, more than 100 µM; with MDA-MB-435 it was 54.5 µM; in the assay on TK-10 renal, more than 100 µM; in the assay on SW-620 colon, more than 100 µM; with NCI-H23 lung it was more than 100 µM.
